# Measured values as given in patent publication EP0382636A1, “Pyrimidine derivatives, 2-[4-(alpha-heteroaryl-alpha-aryl-(alpha-alkyl)-methoxy)-butyl)-1-piperazinyl], with a serotoninergical activity” (LABORATORIOS DEL DR. ESTEVE, S.A., priority 1989, dated 1990).
# Target: T1, récepteurs 5-HT 1A (Homo sapiens, UniProt P08908)
# T1 sequence (P08908 1-422): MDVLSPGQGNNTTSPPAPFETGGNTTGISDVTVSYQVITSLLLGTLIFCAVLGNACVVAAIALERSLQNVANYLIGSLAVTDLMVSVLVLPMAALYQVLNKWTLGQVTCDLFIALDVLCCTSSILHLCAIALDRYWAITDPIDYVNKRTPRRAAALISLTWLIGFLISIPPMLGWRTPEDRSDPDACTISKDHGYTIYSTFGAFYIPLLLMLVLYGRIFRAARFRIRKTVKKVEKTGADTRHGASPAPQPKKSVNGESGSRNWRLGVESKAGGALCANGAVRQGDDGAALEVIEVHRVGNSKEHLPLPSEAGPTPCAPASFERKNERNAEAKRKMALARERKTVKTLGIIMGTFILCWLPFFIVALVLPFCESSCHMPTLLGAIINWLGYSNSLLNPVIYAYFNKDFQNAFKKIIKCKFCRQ
# Test: 5-HT 1A receptor binding (radioligand displacement)
# Settings: specific binding to 5-HT 1A receptors; test concentration not given; method cited from M. Hapon, Brain Receptor Methodologies
# Source text: L'activité de certains composés sur le système nerveux central a été étudiée et plus précisément leur activité sérotoninergique, par leur union spécifique aux récepteurs 5-HT 1A. TABLEAU II
row,Structure (SMILES),Binding 5-HT-1A déplacement (%)
1,Cn1ccnc1C(C)(OCCCCN1CCN(c2ncccn2)CC1)c1ccc(Cl)cc1 (centres unmarked) [Exemple 2],"98,6%"
2,CCCCn1ccnc1C(C)(OCCCCN1CCN(c2ncccn2)CC1)c1cccc(C(F)(F)F)c1 (centres unmarked) [Exemple 3],"97,6%"
3,Cn1ccnc1C(C)(OCCCCN1CCN(c2ncccn2)CC1)c1cccc(C(F)(F)F)c1 (centres unmarked) [Exemple 4],"98,1%"
4,"O=C1CC2(CCCC2)CC(=O)N1CCCCN1CCN(c2ncccn2)CC1 [Buspirone, reference compound]","99,1%"
5,Cn1ccnc1C(OCCCCN1CCN(c2ncccn2)CC1)c1ccc(Cl)cc1 (centres unmarked) [Exemple 1],"94,7%"

# More lines, now with the values ahead:
row,Binding 5-HT-1A déplacement (%),Structure (SMILES)
1,"98,3%",Cn1ccnc1C(OCCCCN1CCN(c2ncccn2)CC1)c1cccc(C(F)(F)F)c1 (centres unmarked) [Exemple 7]
2,"95,0%",Cn1nccc1C(C)(OCCCCN1CCN(c2ncccn2)CC1)c1ccc(Cl)cc1 (centres unmarked) [Exemple 9]
3,"99,6%","O=C1c2ccccc2S(=O)(=O)N1CCCCN1CCN(c2ncccn2)CC1 [Ipsapirone, reference compound]"
4,"91,5%",CCCCn1ccnc1C(OCCCCN1CCN(c2ncccn2)CC1)c1ccc(Cl)cc1 (centres unmarked) [Exemple 5]
5,"95,0%",Cn1nccc1C(OCCCCN1CCN(c2ncccn2)CC1)c1ccc(Cl)cc1 (centres unmarked) [Exemple 8]
6,"94,6%",CCCCn1ccnc1C(OCCCCN1CCN(c2ncccn2)CC1)c1cccc(C(F)(F)F)c1 (centres unmarked) [Exemple 6]
